“Also recorded” adds a separate entry of the source.
Experiments:
Format in all cases: cell-based
[1] = target: human D2 receptors expressed in CHO cells (Homo sapiens, UniProt P14416); test: Mitogenic assay; details: relative to quinpirole
[2] = target: human D2 dopamine receptors (Homo sapiens, UniProt P14416); test: Forskolin-dependent adenylyl cyclase inhibition assay
[3] = target: human D3 dopamine receptors (Homo sapiens, UniProt P35462); test: as above
[4] = target: human D3 receptors expressed in CHO cells (Homo sapiens, UniProt P35462); test: Mitogenic assay; details: relative to quinpirole
Chain of human D3 receptors expressed in CHO cells (P35462 whole entry): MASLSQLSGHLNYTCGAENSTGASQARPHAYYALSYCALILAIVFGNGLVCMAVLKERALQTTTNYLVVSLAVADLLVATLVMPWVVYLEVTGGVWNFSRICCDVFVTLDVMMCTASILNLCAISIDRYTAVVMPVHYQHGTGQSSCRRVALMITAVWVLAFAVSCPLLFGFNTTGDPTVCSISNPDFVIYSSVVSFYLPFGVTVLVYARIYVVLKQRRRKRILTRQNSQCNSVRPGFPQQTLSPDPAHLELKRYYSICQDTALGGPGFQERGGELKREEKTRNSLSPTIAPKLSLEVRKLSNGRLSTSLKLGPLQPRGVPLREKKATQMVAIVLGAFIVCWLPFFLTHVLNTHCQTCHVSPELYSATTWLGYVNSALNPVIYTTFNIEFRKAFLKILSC

Chain of human D3 dopamine receptors (P35462 whole entry): as above
Chain of human D2 receptors expressed in CHO cells (P14416 whole entry): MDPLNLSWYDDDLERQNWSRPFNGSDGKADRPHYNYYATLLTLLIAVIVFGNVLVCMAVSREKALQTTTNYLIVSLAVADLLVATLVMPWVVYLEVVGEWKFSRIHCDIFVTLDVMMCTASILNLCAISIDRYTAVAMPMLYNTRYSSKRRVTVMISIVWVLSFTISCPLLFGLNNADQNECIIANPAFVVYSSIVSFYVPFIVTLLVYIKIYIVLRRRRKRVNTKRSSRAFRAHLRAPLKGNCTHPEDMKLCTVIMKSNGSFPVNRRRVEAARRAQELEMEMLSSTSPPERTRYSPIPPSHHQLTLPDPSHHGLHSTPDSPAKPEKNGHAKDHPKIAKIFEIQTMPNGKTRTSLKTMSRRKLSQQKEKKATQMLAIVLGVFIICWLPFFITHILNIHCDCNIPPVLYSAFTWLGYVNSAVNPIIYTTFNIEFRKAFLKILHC
Chain of human D2 dopamine receptors (P14416 whole entry): as above

| SMILES | intrinsic efficacy in mitogenic assay (in words) [1] | efficacy in adenylyl cyclase inhibition assay (in words) [2] | efficacy in adenylyl cyclase inhibition assay (in words) [3] | intrinsic efficacy in mitogenic assay (in words) [4] |
| --- | --- | --- | --- | --- |
| O=C(NCCCCN1CCN(c2cccc(Cl)c2Cl)CC1)c1ccc(-c2cccnc2)cc1 [PG01042, N-(4-(4-(2,3-dichlorophenyl)piperazin-1-yl)butyl)-4-(pyridin-3-yl)benzamide] | partial mitogenic agonist | weak partial agonist | strong agonist; also recorded: almost full agonist | partial mitogenic agonist |
| COc1ccccc1N1CCN(CCCCNC(=O)c2ccc(-c3cccnc3)cc2)CC1 [PG 848, N-(4-(4-(2-methoxyphenyl)piperazin-1-yl)butyl)-4-(pyridin-3-yl)benzamide] | antagonist | – | greatest efficacy | antagonist |
| COc1ccccc1N1CCN(C/C=C/CNC(=O)c2ccc(-c3cccnc3)cc2)CC1 [PG 845, (E)-N-(4-(4-(2-methoxyphenyl)piperazin-1-yl)but-2-enyl)-4-(pyridin-3-yl)benzamide] | – | – | greatest efficacy | – |
| O=C(NCCCCN1CCN(c2cccc(Cl)c2Cl)CC1)c1ccc2c(c1)Cc1ccccc1-2 [NGB 2904, reference compound] | – | – | antagonist | antagonist |
| O=C(NCCCCN1CCN(c2cccc(Cl)c2Cl)CC1)c1ccc(-c2ccccn2)cc1 [CJB090, N-(4-(4-(2,3-dichlorophenyl)piperazin-1-yl)butyl)-4-(pyridin-2-yl)benzamide] | some activity | partial agonist | partial agonist | partial agonist; also recorded: some activity |
